Laboratory results from patent US11291684B2, “Treatment of glaucoma” (TX MEDIC AB, priority 2017, dated 2022).

Tested on: retinal ganglion cell (RGC)
Test: Retinal ganglion cell counts by immunohistochemistry in TGF-β-induced glaucoma model
Type: in vivo, Sprague Dawley rats
Settings: rat TGF-β glaucoma model; day 28; vs saline
Description: Glaucoma was induced in adult male Sprague Dawley rats by repeat twice weekly intracameral (IC) injections of transforming growth factor-β (TGF-β) to increase intraocular pressure (IOP). Sustained increases in IOP (after two weeks) leads to death of retinal ganglion cells (30-40%). Dextran sulfate (Tikomed AB, Sweden, WO 2016/076780) was administered at 15 mg/kg by daily subcutaneous injection from […] to assess RGC protection compared to controls.
Measured End-Points • IOP twice weekly throughout study from day 0 to day 28; • Immunohistochemistry for counting RGC that are immunoreactive for brain-specific homeobox/POU domain protein 3A (Brn3a) at day 28 (RGC survival); • Immunohistochemistry for laminin and fibronectin to evaluate scarring in the trabecular meshwork at day 28 in Groups 1 and 2; • Anterior segment and OCT imaging at day 28 to examine the angle and the thickness of the retinal nerve fiber layer comprising RGC axons; and • Body weight at day 28. […]
For quantification of RGC in retinal sections, RPBMS^+/DAPI^+ RGC were counted in 15 μm thick parasagittal sections of retina from a 250 μm linear portion from the ganglion cell layer at either side of the optic nerve. Four retinal sections from each eye in the control and treatment groups were quantified. […]

dextran sulfate
decline in RGC numbers present in the retina: significantly prevented
